Experimental data published in PMC7181131, “N-Pyrazinoyl Substituted Amino Acids as Potential Antimycobacterial Agents—the Synthesis and Biological Evaluation of Enantiomers” (Molecules, 2020).
Converted amounts (≈) assume the structure as drawn. Like-named read-outs stand apart in the source and are kept apart here.

Assays:
[1] = test system: Mtb H37Ra ITM-M006710 (ATCC 9431); assay: Microplate Alamar Blue Assay (MABA) microdilution, Mtb H37Ra; format: cell-based, Mycobacterium tuberculosis; conditions: for MIC: Mycobacterium tuberculosis
[2] = test system: Trichophyton interdigitale CCM 8377 (ATCC 9533); assay: Antifungal microdilution broth method, TI; format: cell-based
[3] = test system: Mycobacterium aurum DSM 43999 (ATCC 23366); assay: Microplate Alamar Blue Assay (MABA) microdilution, M. aurum; format: cell-based
[4] = test system: Aspergillus flavus CCM 8363; assay: Antifungal microdilution broth method, AFla; format: cell-based
Procedure: 6. In vitro antifungal activity screening
Antifungal activity evaluation was performed using a microdilution broth method according to EUCAST instructions (The European Committee on Antimicrobial Susceptibility Testing) with slight modifications. Eight fungal strains (four yeast and four mould strains) were used for antifungal […]
and Trichophyton interdigitale CCM 8377 (ATCC 9533). Tested strains were purchased from the Czech Collection of Microorganisms (CCM, Brno, Czech Republic) or from the American Type Collection Cultures (ATCC, Manassas, VA, USA). Tested compounds were dissolved in DMSO and diluted in a twofold manner with RPMI 1640 medium, with glutamine and 2% glucose, buffered to pH 7.0 with MOPS (3-morpholinopropane-1-sulfonic acid). The final concentration of DMSO in the testing […]
Static incubation was performed in the dark and in humid atmosphere, at 35±2 °C, for 24 and 48 h (72 and 120 h for Trichophyton interdigitale respectively). Positive controls consisted of test microbe solely, while negative controls consisted of cultivation medium and DMSO. Visual inspection and metabolic activity indicator, Alamar Blue (ThermoFisher Scientific), were used for MIC endpoint evaluation. The internal quality standards, amphotericin B (Sigma-Aldrich) and voriconazole (Toronto research Chemicals, CA) were involved in assays (for MIC of standards see Table S5). All experiments were conducted in duplicates.
For the results to be valid, the difference in MIC for one compound determined from two parallel measurements must not be greater than one step on the dilution scale.

[5] = test system: Candida krusei CCM 8271 (ATCC 6258); assay: Antifungal microdilution broth method, CK; format: cell-based; conditions: Pichia kudriavzevii
[6] = test system: Lichtheimia corymbifera CCM 8077; assay: Antifungal microdilution broth method, LC; format: cell-based
[7] = test system: Aspergillus fumigatus ATCC 204305; assay: Antifungal microdilution broth method, AF; format: cell-based
[8] = test system: Candida tropicalis CCM 8264 (ATCC 750); assay: Antifungal microdilution broth method, CT; format: cell-based
[9] = test system: Candida parapsilosis CCM 8260 (ATCC 22019); assay: Antifungal microdilution broth method, CP; format: cell-based; conditions: Lodderomyces parapsilosis
[10] = test system: Staphylococcus epidermidis CCM 4418 (ATCC 12228); assay: Antibacterial microdilution broth method, SE; format: cell-based; conditions: 24 h
[11] = test system: M. smegmatis DSM 43465 (ATCC 607); assay: Microplate Alamar Blue Assay (MABA) microdilution, M. smegmatis; format: cell-based, Mycobacterium smegmatis
[12] = test system: Klebsiella pneumoniae CCM 4415 (ATCC 10031); assay: Antibacterial microdilution broth method, KP; conditions: for MIC KP: read after 24 h of incubation; for MIC: Klebsiella pneumoniae
[13] = test system: Candida albicans CCM 8320 (ATCC 24433); assay: Antifungal microdilution broth method, CA; format: cell-based
[14] = Mycolicibacterium aurum, pH 6, read-out: MIC M. aurum µg/mL
[15] = Mycolicibacterium aurum, pH 6.6, read-out: MIC M. aurum
[16] = CCM8363, read after 48 h (filamentous fungi), read-out: MIC AFla
[17] = CCM8077, 48 h, read-out: MIC LC
[18] = ATCC204305, 48 h, read-out: MIC AF
[19] = Mycolicibacterium smegmatis, pH 6, read-out: MIC M. smegmatis µg/mL
[20] = Mycolicibacterium smegmatis, pH 6.6, read-out: MIC M. smegmatis
[21] = pH 6.6, read-out: MIC Mtb H37Ra
[22] = pH 6, calculated from µg/mL, read-out: MIC Mtb H37Ra
[23] = Mycolicibacterium aurum, pH 6; read-out: MIC M. aurum
[24] = Mycolicibacterium aurum, pH 6.6; read-out: MIC M. aurum
[25] = Mycolicibacterium smegmatis, pH 6; read-out: MIC M. smegmatis
[26] = Mycolicibacterium smegmatis, pH 6.6; read-out: MIC M. smegmatis
[27] = internal quality control, naked eye, no visible growth, 48 h (moulds), read-out: MIC, visual detection
[28] = CCM8363, internal quality control, naked eye, no visible growth, 48 h (moulds), read-out: MIC, visual detection
[29] = internal quality control, 530 nm, inhibition of growth of 90%, 24 h (yeasts), read-out: MIC, spectrophotometric detection
[30] = internal quality control, naked eye, no visible growth, 24 h (yeasts), read-out: MIC, visual detection
[31] = CCM8077, internal quality control, naked eye, no visible growth, 48 h (moulds), read-out: MIC, visual detection
[32] = ATCC204305, internal quality control, naked eye, no visible growth, 48 h (moulds), read-out: MIC, visual detection
[33] = 24 h, read-out: MIC, spectrophotometric detection

Compound	MIC ([2]; 48 h, read-out: MIC TI)	MIC [3, 14]	MIC [3, 15]	MIC [4, 16]	MIC ([5]; 24 h, read-out: MIC CK)	MIC [6, 17]	MIC [7, 18]	MIC ([8]; 24 h, read-out: MIC CT)	MIC ([9]; 24 h, read-out: MIC CP)	MIC ([10]; read-out: MIC SE)	MIC [11, 19]	MIC [11, 20]	MIC ([13]; 24 h, read-out: MIC CA)	MIC ([1]; pH 6)	MIC ([1]; pH 6, read-out: MIC Mtb H37Ra)	MIC [1, 21]	MIC [1, 22]	other results
COC(=O)C(CC(C)C)NC(=O)c1cnc(Cl)cn1 (stereo not drawn)	–	–	–	–	–	–	–	–	–	–	–	–	–	–	–	–	–	MIC Mtb H37Ra ([1]; pH 6): 3.91 µg/mL (≈ 13.7 µM); MIC Mtb H37Ra ([1]; pH 6.6): 62.5 µg/mL (≈ 219 µM)
COC(=O)[C@H](C)NC(=O)c1cnccn1 (racemic) [PC-DL-Ala-Me, methyl (pyrazine-2-carbonyl)alaninate]	> 500 µM	≥ 125 µg/mL	≥ 500 µg/mL	> 500 µM	250 µM	> 500 µM	> 500 µM	> 500 µM	> 500 µM	> 500 µM	≥ 125 µg/mL	≥ 500 µg/mL	> 500 µM	≥ 125 µg/mL	≥ 125 µg/mL	≥ 500 µg/mL	≥ 598 µM	MIC KP [12]: > 500 µM
O=C(O)c1cn(C2CC2)c2cc(N3CCNCC3)c(F)cc2c1=O [CPX, ciprofloxacin, reference compound]	–	–	–	–	–	–	–	–	–	–	–	–	–	–	0.25 µg/mL	0.125 to 0.25 µg/mL	0.75 µM	MIC [3, 23]: 0.0625 µg/mL (≈ 0.189 µM); MIC [3, 24]: 0.0078 to 0.0156 µg/mL (≈ 0.0235 to 0.0471 µM); MIC [11, 25]: 0.0625 to 0.25 µg/mL (≈ 0.189 to 0.754 µM); MIC [11, 26]: 0.0625 to 0.125 µg/mL (≈ 0.189 to 0.377 µM)
CCOC(=O)[C@@H](C)NC(=O)c1cnccn1 [PC-D-Ala-Et, ethyl (pyrazine-2-carbonyl)-D-alaninate]	> 500 µM	≥ 125 µg/mL	≥ 500 µg/mL	> 500 µM	> 500 µM	> 500 µM	> 500 µM	> 500 µM	> 500 µM	> 500 µM	≥ 125 µg/mL	≥ 500 µg/mL	> 500 µM	≥ 125 µg/mL	≥ 125 µg/mL	≥ 500 µg/mL	≥ 560 µM	MIC KP [12]: > 500 µM
O=C(N[C@@H](CSCc1ccccc1)C(=O)O)c1cnccn1 [PC-L-SBn-Cys, S-benzyL-N-(pyrazine-2-carbonyl)-L-cysteine]	> 250 µM	125 µg/mL (≈ 394 µM)	≥ 250 µg/mL	> 250 µM	> 250 µM	> 250 µM	> 250 µM	> 250 µM	> 250 µM	250 µM	≥ 250 µg/mL	≥ 250 µg/mL	> 250 µM	62.5 µg/mL	62.5 µg/mL	≥ 250 µg/mL	197 µM	–
CO[C@H]1/C=C/O[C@@]2(C)Oc3c(C)c(O)c4c(O)c(c(/C=N/N5CCN(C)CC5)c(O)c4c3C2=O)NC(=O)/C(C)=C\C=C\[C@H](C)[C@H](O)[C@@H](C)[C@@H](O)[C@@H](C)[C@H](OC(C)=O)[C@@H]1C [RIF, rifampicin, reference compound]	–	–	–	–	–	–	–	–	–	–	–	–	–	–	0.0016 to 0.0062 µg/mL	0.0039 to 0.0078 µg/mL	0.0019 to 0.0075 µM	MIC [3, 23]: 0.39 to 1.56 µg/mL (≈ 0.474 to 1.9 µM); MIC [3, 24]: 0.39 to 0.78 µg/mL (≈ 0.474 to 0.948 µM); MIC [11, 25]: 6.25 to 12.5 µg/mL (≈ 7.59 to 15.2 µM); MIC [11, 26]: 12.5 to 25 µg/mL (≈ 15.2 to 30.4 µM)
C[C@@H]1[C@H](O)[C@@H](C)/C=C/C=C/C=C/C=C/C=C/C=C/C=C/[C@H](O[C@@H]2O[C@H](C)[C@@H](O)[C@H](N)[C@@H]2O)C[C@@H]2O[C@](O)(C[C@@H](O)C[C@@H](O)[C@H](O)CC[C@@H](O)C[C@@H](O)CC(=O)O[C@H]1C)C[C@H](O)[C@H]2C(=O)O [amphotericin B, reference compound]	–	–	–	–	–	–	–	–	–	–	–	–	–	–	–	–	–	MIC ([2]; internal quality control, 530 nm, inhibition of growth of 90%, 48 h (moulds), read-out: MIC, spectrophotometric detection): 1 µg/mL; MIC [2, 27]: 1 µg/mL; MIC ([4]; CCM8363, internal quality control, 530 nm, inhibition of growth of 90%, 48 h (moulds), read-out: MIC, spectrophotometric detection): 4 µg/mL; MIC [4, 28]: 4 µg/mL; MIC [5, 29]: 0.5 µg/mL; MIC [5, 30]: 0.5 µg/mL; MIC ([6]; CCM8077, internal quality control, 530 nm, inhibition of growth of 90%, 48 h (moulds), read-out: MIC, spectrophotometric detection): 0.125 µg/mL; MIC [6, 31]: 0.125 µg/mL; MIC ([7]; ATCC204305, internal quality control, 530 nm, inhibition of growth of 90%, 48 h (moulds), read-out: MIC, spectrophotometric detection): 1 µg/mL; MIC [7, 32]: 1 µg/mL; MIC [8, 29]: 1 µg/mL; MIC [8, 30]: 1 µg/mL; MIC [9, 29]: 0.5 µg/mL; MIC [9, 30]: 0.5 µg/mL; MIC [13, 29]: 0.5 µg/mL; MIC [13, 30]: 0.5 µg/mL
CNC(C)C1CCC(N)C(OC2C(N)CC(N)C(OC3OCC(C)(O)C(NC)C3O)C2O)O1 (stereo not drawn) [gentamicin, reference compound]	–	–	–	–	–	–	–	–	–	–	–	–	–	–	–	–	–	MIC ([10]; internal quality control, 530 nm, inhibition of growth of 95%, read-out: MIC, spectrophotometric detection): 0.125 µg/mL; MIC ([10]; internal quality control, naked eye, no visible growth, read-out: MIC, visual detection): 0.125 µg/mL; MIC ([12]; 24 h, read-out: MIC, visual detection): 0.5 µg/mL (≈ 1.05 µM); MIC ([12]; ATCC10031|CCM4415, 24 h, read-out: MIC, spectrophotometric detection): 0.5 µg/mL (≈ 1.05 µM)
C[C@@H](c1ncncc1F)[C@](O)(Cn1cncn1)c1ccc(F)cc1F [voriconazole, reference compound]	–	–	–	–	–	–	–	–	–	–	–	–	–	–	–	–	–	MIC ([2]; 48 h, read-out: MIC, spectrophotometric detection): > 16 µg/mL; MIC [2, 27]: > 16 µg/mL; MIC ([4]; CCM8363, 48 h, read-out: MIC, spectrophotometric detection): 1 µg/mL; MIC [4, 28]: > 16 µg/mL; MIC [5, 33]: 0.25 µg/mL; MIC [5, 30]: > 16 µg/mL; MIC ([6]; CCM8077, 48 h, read-out: MIC, spectrophotometric detection): > 16 µg/mL; MIC [6, 31]: > 16 µg/mL; MIC ([7]; ATCC204305, 48 h, read-out: MIC, spectrophotometric detection): 0.25 µg/mL; MIC [7, 32]: 1 µg/mL; MIC [8, 33]: 0.0625 µg/mL; MIC [8, 30]: > 16 µg/mL; MIC [9, 33]: 0.03 µg/mL; MIC [9, 30]: > 16 µg/mL; MIC [13, 33]: 0.03 µg/mL; MIC [13, 30]: > 16 µg/mL
